The source of these data is PubChem BioAssay AID328 (DTP/NCI, 2004).

“And” between values parts separate entries of the source, which are not always exact repeats. Equal entries are not always repeated. Inconclusive results and toxic doses are left out.

This assay deals with BDF1 mice, P388 leukemia ip, median survival T/C. In words: NCI In Vivo Anticancer Drug Screen. Data for tumor model P388 Leukemia (intraperitoneal) in B6D2F1 (BDF1) mice. The following applies: endpoint: median survival time, higher = longer survival. On the procedure:
The antitumor activity of compounds was measured in mice bearing transplantable tumors. Survival or tumor size were measured and the results are expressed as the measurement made in the treated group (T) divided by the measurement made in the vehicle treated control group (C). The tumor model used in this assay is P388 Leukemia (intraperitoneal) in B6D2F1 (BDF1) mice

[1] abbreviates: dose: 50.0 mg/kg/injection, schedule: Q01DX009 (ip), vehicle: saline with Tween-80.
Where [2] appears, read: dose: 100.0 mg/kg/injection, schedule: Q01DX009 (ip), vehicle: saline with Tween-80.
[3] abbreviates: dose: 100.0 mg/kg/injection, schedule: Q04DX003 (ip), vehicle: saline with Tween-80.
The mark [4] stands for this setting: dose: 200.0 mg/kg/injection, schedule: Q04DX003 (ip), vehicle: saline with Tween-80.
Where [5] appears, read: dose: 400.0 mg/kg/injection, schedule: Q04DX003 (ip), vehicle: saline with Tween-80.
Where [6] appears, read: dose: 25.0 mg/kg/injection, schedule: Q04DX003 (ip), vehicle: saline.
Where [7] appears, read: dose: 50.0 mg/kg/injection, schedule: Q04DX003 (ip), vehicle: saline.
The mark [8] stands for this setting: dose: 25.0 mg/kg/injection, schedule: Q01DX009 (ip), vehicle: Klucel (hydroxypropylcellulose) (HPC).
Setting [9] is: dose: 100.0 mg/kg/injection, schedule: Q04DX003 (ip), vehicle: Klucel (hydroxypropylcellulose) (HPC).
Where [10] appears, read: dose: 200.0 mg/kg/injection, schedule: Q04DX003 (ip), vehicle: Klucel (hydroxypropylcellulose) (HPC).
The mark [11] stands for this setting: dose: 12.5 mg/kg/injection, schedule: Q01DX009 (ip), vehicle: Klucel (hydroxypropylcellulose) (HPC).
[12] abbreviates: dose: 100.0 mg/kg/injection, schedule: Q04DX002 (ip), vehicle: saline with Tween-80.
[13] abbreviates: dose: 200.0 mg/kg/injection, schedule: Q04DX002 (ip), vehicle: saline with Tween-80.
[14] abbreviates: dose: 400.0 mg/kg/injection, schedule: Q04DX002 (ip), vehicle: saline with Tween-80.

With `Cc1ccc(Cl)cc1O`, the T/C is 100 % of control under setting [1]; 96 % of control under setting [2]; 104 % of control (dose: 200.0 mg/kg/injection, schedule: Q04DX003 (ip), vehicle: saline + alcohol); 104 % of control (dose: 300.0 mg/kg/injection, schedule: Q04DX003 (ip), vehicle: saline + alcohol); 91 % of control (dose: 450.0 mg/kg/injection, schedule: Q04DX003 (ip), vehicle: saline + alcohol).
Turning to `CCOC(=O)C(NC(=O)OCc1ccccc1)(OCc1ccccc1)C(C)C` (configuration not stated), the T/C runs as follows: under setting [3], 97 % of control; under setting [4], 105 % of control; under setting [5], 94 % of control.
Take `CCCCOCCN1CCN(CCCN2c3ccccc3Sc3ccc(C(F)(F)F)cc32)CC1`: the T/C was 111 % of control (dose: 12.5 mg/kg/injection, schedule: Q04DX003 (ip), vehicle: saline); 112 % of control under setting [6]; 153 % of control under setting [7].
With `COc1ccc(CNc2ncccn2)cc1`, the T/C is 95 % of control under setting [8]; 100 % of control (dose: 50.0 mg/kg/injection, schedule: Q01DX009 (ip), vehicle: Klucel (hydroxypropylcellulose) (HPC)); 104 % of control (dose: 100.0 mg/kg/injection, schedule: Q01DX009 (ip), vehicle: Klucel (hydroxypropylcellulose) (HPC)); 88 % of control under setting [9]; 89 % of control (dose: 200.0 mg/kg/injection, schedule: Q01DX009 (ip), vehicle: Klucel (hydroxypropylcellulose) (HPC)); 96 % of control under setting [10].
Take `CN(C)C(C#N)c1c[nH]c2ccccc12` (configuration not stated): the T/C by setting is: (dose: 6.25 mg/kg/injection, schedule: Q01DX009 (ip), vehicle: Klucel (hydroxypropylcellulose) (HPC)) 105 % of control; (dose: 6.25 mg/kg/injection, schedule: Q04DX003 (ip), vehicle: Klucel (hydroxypropylcellulose) (HPC)) 109 % of control; under setting [11], 100 % of control; (dose: 12.5 mg/kg/injection, schedule: Q04DX003 (ip), vehicle: Klucel (hydroxypropylcellulose) (HPC)) 100 % of control; under setting [8], 94 % of control; (dose: 25.0 mg/kg/injection, schedule: Q04DX003 (ip), vehicle: Klucel (hydroxypropylcellulose) (HPC)) 100 % of control.
On to `Oc1ccc(C2N(c3ccccc3)CCN2c2ccccc2)cc1`, for which the T/C was 110 % of control under setting [3] and 86 % of control under setting [4].
For the compound `CC1(C)C2CCC1(C)C(Cl)C2` (configuration not stated), the T/C is, setting by setting: under setting [12], 100 % of control; under setting [13], 103 % of control; under setting [14], 107 % of control.
For the compound `C1CN2CCN1CC2.[Cl][Ni+][Cl]`, the T/C was 103 % of control (dose: 0.78 mg/kg/injection, schedule: Q01DX009 (ip), vehicle: saline); 92 % of control and 99 % of control (dose: 1.56 mg/kg/injection, schedule: Q01DX009 (ip), vehicle: saline); 99 % of control and 103 % of control (dose: 3.12 mg/kg/injection, schedule: Q01DX009 (ip), vehicle: saline); 100 % of control and 101 % of control (dose: 6.25 mg/kg/injection, schedule: Q01DX009 (ip), vehicle: saline).
On to `CCOC(=O)c1c(N)[nH]c(SSc2[nH]c(N)c(C(=O)OCC)c2C(=O)OCC)c1C(=O)OCC`, for which the T/C was 92 % of control (dose: 25.0 mg/kg/injection, schedule: Q01DX009 (ip), vehicle: saline with Tween-80); 108 % of control under setting [1]; 109 % of control (dose: 50.0 mg/kg/injection, schedule: Q04DX003 (ip), vehicle: saline with Tween-80); 109 % of control under setting [3]; 114 % of control under setting [4]; 109 % of control under setting [5].
For the compound `c1ccc(NNc2c3ccccc3nc3ccccc23)cc1`, the T/C runs as follows: under setting [1], 102 % of control; under setting [2], 102 % of control.
Consider `C=C1CCC2C1C1C(C(C)C)CCC21C` (configuration not stated), for which the T/C was 105 % of control under setting [1] and 104 % of control under setting [2].
On to `O=C1CN(CCc2ccccc2)CC(=O)N2C(c3ccccc3)CCCN12` (configuration not stated), for which the T/C was 94 % of control (dose: 50.0 mg/kg/injection, schedule: Q01DX005 (ip), vehicle: saline with Tween-80); 97 % of control (dose: 100.0 mg/kg/injection, schedule: Q01DX005 (ip), vehicle: saline with Tween-80); 97 % of control (dose: 200.0 mg/kg/injection, schedule: Q01DX005 (ip), vehicle: saline with Tween-80).
Consider `COc1cc(OC)c(OC)cc1/C=C/c1ccc2ccccc2n1`, for which the T/C runs as follows: under setting [3], 100 % of control; under setting [4], 88 % of control; under setting [5], 88 % of control.
Turning to `O=C(Nc1ccccc1)Nn1cnc2ccccc2c1=O`, the T/C is 90 % of control under setting [3], 100 % of control under setting [4] and 100 % of control under setting [5].
As to `CC(C)=CCCC(C)=C(C(=O)O)C(=O)O`, the T/C runs as follows: under setting [9], 113 % of control; under setting [10], 111 % of control; (dose: 400.0 mg/kg/injection, schedule: Q04DX003 (ip), vehicle: Klucel (hydroxypropylcellulose) (HPC)) 110 % of control.
`COc1cc2cc(c1Cl)N(C)C(=O)CC(OC(=O)C(C)N(C)C(=O)C(C)C)C1(C)OC1C(C)C1CC(O)(NC(=O)O1)C(OC)/C=C/C=C(C)C2` (configuration not stated): the T/C is, setting by setting: (dose: 0.2 micrograms/kg/injection, schedule: Q01DX009 (ip), vehicle: saline + alcohol) 165 % of control; (dose: 0.4 micrograms/kg/injection, schedule: Q01DX009 (ip), vehicle: saline + alcohol) 155 % of control; (dose: 0.8 micrograms/kg/injection, schedule: Q01DX009 (ip), vehicle: saline + alcohol) 190 % of control; (dose: 1.6 micrograms/kg/injection, schedule: Q01DX009 (ip), vehicle: saline + alcohol) 155 % of control; (dose: 6.2 micrograms/kg/injection, schedule: Q01DX009 (ip), vehicle: saline + alcohol) 155 % of control; (dose: 12.5 micrograms/kg/injection, schedule: Q01DX009 (ip), vehicle: saline + alcohol) 120 % of control.
With `CC[C@](C)(O)C(=O)O[C@H]1C(=O)O[C@@H]2C[C@H]3C(C)=C[C@H](O)[C@@H](O)[C@]3(C)[C@H]3[C@@]4(O)OC[C@]32[C@@H]1[C@@H](C)[C@H]4O`, the T/C is 113 % of control (dose: 1.0 mg/kg/injection, schedule: Q01DX010 (ip), vehicle: other) and 113 % of control (dose: 4.0 mg/kg/injection, schedule: Q01DX010 (ip), vehicle: other).
`CCN(CC)CCOc1cc(C)ccc1C`: the T/C (dose: 25.0 mg/kg/injection, schedule: Q01DX009 (ip), vehicle: saline) was 103 % of control; the T/C under setting [6] was 109 % of control; the T/C (dose: 50.0 mg/kg/injection, schedule: Q01DX009 (ip), vehicle: saline) is 92 % of control; the T/C under setting [7] is 100 % of control; the T/C (dose: 100.0 mg/kg/injection, schedule: Q01DX009 (ip), vehicle: saline) was 89 % of control; the T/C (dose: 100.0 mg/kg/injection, schedule: Q04DX003 (ip), vehicle: saline) is 90 % of control.
As for `CN=C(NCCCOC)c1ccc(NC(=O)Nc2ccc(NC(=O)Nc3ccc(C(=NC)NCCCOC)cc3)cc2)cc1`, the T/C was 104 % of control (dose: 6.25 mg/kg/injection, schedule: Q01DX005 (ip), vehicle: Klucel (hydroxypropylcellulose) (HPC)); 108 % of control (dose: 12.5 mg/kg/injection, schedule: Q01DX005 (ip), vehicle: Klucel (hydroxypropylcellulose) (HPC)); 115 % of control (dose: 25.0 mg/kg/injection, schedule: Q01DX005 (ip), vehicle: Klucel (hydroxypropylcellulose) (HPC)); 121 % of control (dose: 50.0 mg/kg/injection, schedule: Q01DX005 (ip), vehicle: Klucel (hydroxypropylcellulose) (HPC)); 107 % of control (dose: 100.0 mg/kg/injection, schedule: Q01DX005 (ip), vehicle: Klucel (hydroxypropylcellulose) (HPC)).
`CCCNC(=O)Nc1cccc(C(F)(F)F)c1`: the T/C is 104 % of control under setting [3], 109 % of control under setting [4] and 100 % of control under setting [5].
As for `O=C(Nc1nncs1)c1cnccn1`, the T/C was 98 % of control (dose: 50.0 mg/kg/injection, schedule: Q04DX002 (ip), vehicle: saline with Tween-80); 97 % of control under setting [12]; 104 % of control under setting [13]; 168 % of control under setting [14].
Regarding `c1ccc([B-]2([C+]3CCCCC3)N3CCCCC3C3CCCCN32)cc1` (configuration not stated), the T/C reads like this: under setting [11], 119 % of control; under setting [8], 119 % of control.
